Data: patent publication US9365614B2, “IAP BIR domain binding compounds” (priority 2006, dated 2016)

What was measured:
PC3 cells = test: Survival assay (MTS), PC3; assay type: cell-based; settings: Homo sapiens, PC-3; in the presence of TRAIL (1-3 ng/ml)
Procedure: (§1) Survival assays were performed on various cell lines including MDA-MB-231, SKOV3, H460, PC3, HCT-116, and SW480 cells. Cells were seeded in 96 well plates at a respective density of 5000 and 2000 cells per well and incubated at 37° C. in presence of 5% CO2 for 24 hours. Selected compounds were diluted into the media at various concentration ranging from 0.01 uM up to 100 uM. Diluted compounds were added onto the MDA-MB-231 cells. For the MDA-MB-231 SKOV3, H460, PC3, HCT-116, and SW480 cells, the compounds were added either alone or in presence of 1-3 ng/ml of TRAIL. After 72 hours cellular viability was evaluated by MTS based assays. A solution of [3-(4,5-dimethylthiazol-2-yl)-5-(3-carboxymethoxyphenyl)-2-(4-sulfophenyl)-2H-tetrazolium, inner salt; MTS] was added onto cells for a period of 1 to 4 hours. Upon incubation the amount of converted MTS was evaluated using a Tecan spectrophotometer set at 570 nm.

HEY (ovarian) cells = test: Survival assay with TRAIL, HEY; assay type: cell-based; settings: in the presence of TRAIL (1-3 ng/mL)
Procedure: as §1

MDA-MB231 cells = test: Survival MTT assay, MDA-MB-231; assay type: cell-based; settings: Homo sapiens, 72 h
Procedure: (§2) One day prior the treatment with compound, 2000 to 4000 cells per well were plated in a tissue culture treated 96 well format dish with 100 ul of media and incubated at 37° C., 5% CO2. On the day of compound treatment, compounds were diluted with cell culture media to a working stock concentration of 2×. 100 uL of diluted compound were then added to each well. The treated plate was incubated for 72 h at 37° C., 5% CO2. Upon incubation, the cell viability was assessed as followed 20 uL of MTT reagent at 5 mg/ml were added per well to cell plate. The plate was incubated for 2 h at 37° C. in presence of 5% CO2. The supernatant was then removed from the plate and 100 uL of isopropanol were added. The absorbance was measured in a TECAN spectrophotometer at 570 nm. The percentage of viability was expressed in percentage of the signal obtained with non treated cells.

HCT116 (colon) cells = test: Survival assay with TRAIL, HCT116; assay type: cell-based; settings: Homo sapiens, HCT-116; in the presence of TRAIL (1-3 ng/mL)
Procedure: as §1

H460 (lung) cells = test: Survival assay with TRAIL, H460; assay type: cell-based; settings: Homo sapiens, NCI-H460; in the presence of TRAIL (1-3 ng/mL)
Procedure: MDA-MD-231 (breast) and H460 (lung) cancer cells were cultured in RPMI1640 media supplemented with 10% FBS and 100 units/mL of Penicillin and Steptomycin.
as §1

SKOV-3 cells = test: Survival MTT assay, SKOV-3; assay type: cell-based; settings: Homo sapiens, SK-OV-3, 72 h, read-out: EC50 against SKOV3
Procedure: as §2

OVCAR-3 (ovarian) cells = test: Survival assay with TRAIL, OVCAR-3; assay type: cell-based; settings: Homo sapiens, in the presence of TRAIL (1-3 ng/mL)
HELA (cervical) cells = test: Survival assay with TRAIL, HELA; assay type: cell-based; settings: Homo sapiens, in the presence of TRAIL (1-3 ng/mL)
Procedure: as §1

[1] = target: T1, XIAP linker BIR2-BIR3-ring (GST-linker BIR 2 BIR3Ring) (Homo sapiens, UniProt P98170); test: Fluorescence polarization competition assay, BIR2-BIR3-ring, probe P2; assay type: binding; settings: BIR2-BIR3-ring FP assay
T1 construct: made in house; host or cells: E. coli DH5-alpha
T1 sequence (P98170 93-497): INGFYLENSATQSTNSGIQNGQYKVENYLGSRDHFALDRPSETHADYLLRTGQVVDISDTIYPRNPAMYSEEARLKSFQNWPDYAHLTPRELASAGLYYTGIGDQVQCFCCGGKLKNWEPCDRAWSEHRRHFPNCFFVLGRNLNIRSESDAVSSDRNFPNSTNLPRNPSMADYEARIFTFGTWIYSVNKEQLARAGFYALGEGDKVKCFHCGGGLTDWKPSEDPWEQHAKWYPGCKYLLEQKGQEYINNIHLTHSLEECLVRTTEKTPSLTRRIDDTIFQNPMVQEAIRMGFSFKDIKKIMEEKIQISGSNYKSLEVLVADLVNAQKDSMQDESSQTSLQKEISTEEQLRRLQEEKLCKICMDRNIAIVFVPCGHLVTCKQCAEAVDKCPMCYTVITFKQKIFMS
Excerpt: GST-linker BIR 2 BIR3Ring: XIAP coding sequence from amino acids 93-497 cloned into PGex4T1 via BamH1 and XhoI. Amino acids 93-497 were amplified from full length XIAP in pGex4t3, using the primers: […] (SEQ ID NO: 7) and GCTGCATGTGTGTCAGAGG (SEQ ID NO: 8), using standard PCR conditions. The PCR fragment was TA cloned into pCR-2.1 (invitrogen). Linker BIR 2 BIR 3Ring was subcloned into pGex4T1 by BamHI/XhoI digestion. The plasmid was transformed into E. coli DH5a for use in protein expression and purification.
For all assays, the fluorescence and fluorescence-polarization was evaluated using a Tecan Polarion instrument with the excitation filter set at 485 nm and the emission filter set at 535 nm. […] Upon establishing these conditions, the compounds potency (IC50) and selectivity, was assessed in the presence of a fix defined-amount of target protein and fluorescent probe and a 10 point serial dilution of the selected compounds. […] Auto-fluorescence for each compound was first assessed by performing a reading of the compound/BSA solution alone. Then 25 uL of the fluorescein probe diluted into 50 mM MES containing 0.05 mg/ml BSA were added and a reading to detect quenching of fluorescein signal done. […]
The ki of various compounds in the BIR2-BIR3-ring FP assay, using probe P2, was determined as described above.

With `CN[C@@H](C)C(=O)N[C@H](C(=O)N1C[C@@H](NC(=O)c2ccc(C(=O)N[C@H]3C[C@@H](C(=O)N[C@@H]4CCCc5ccccc54)N(C(=O)[C@@H](NC(=O)[C@H](C)NC)C(C)(C)C)C3)cc2)C[C@H]1C(=O)N[C@@H]1CCCc2ccccc21)C(C)(C)C` [Compound 3] as the molecule, how does the EC50 (PC3 cells) read?
Its EC50 is under 1 µM.

What about the EC50 (HEY (ovarian) cells) of the same molecule?
The EC50 was under 1 µM.

What about the EC50 (MDA-MB231 cells) of the same molecule?
Its EC50 is under 0.05 µM.

What about the EC50 (HCT116 (colon) cells) of the same molecule?
The EC50 was under 1 µM.

What about the EC50 (H460 (lung) cells) of the same molecule?
The EC50 was under 1 µM.

What about the EC50 (SKOV-3 cells) of the same molecule?
The EC50 was 0.001 µM.

And the EC50 (OVCAR-3 (ovarian) cells)?
Its EC50 is under 1 µM.

And the EC50 (HELA (cervical) cells)?
Its EC50 is under 1 µM.

What about the Ki [1] of the same molecule?
Its Ki is under 0.1 µM.
